Each molecule was assayed against T1, human TGR5 (Homo sapiens, UniProt Q8TDU6) (assay: Cell-based TGR5 assay (cAMP generation, HTRF)). Settings: HEK293 cells stably transfected with human TGR5; cAMP by HTRF; 30 minutes at 37° C.; read-out: pEC50 Human TGR5 (converted).
T1 construct: expressed in transfected cells; host or cells: HEK293
T1 sequence (Q8TDU6 1-330): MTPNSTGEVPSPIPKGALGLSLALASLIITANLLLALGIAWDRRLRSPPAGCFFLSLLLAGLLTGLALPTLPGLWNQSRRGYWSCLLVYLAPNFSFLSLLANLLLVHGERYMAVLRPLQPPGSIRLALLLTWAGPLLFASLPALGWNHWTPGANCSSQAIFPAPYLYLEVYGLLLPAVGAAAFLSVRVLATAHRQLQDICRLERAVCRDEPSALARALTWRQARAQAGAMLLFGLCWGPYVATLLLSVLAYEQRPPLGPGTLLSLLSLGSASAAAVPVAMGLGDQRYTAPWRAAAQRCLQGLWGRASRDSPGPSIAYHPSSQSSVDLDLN
Method in brief: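 Read-out was HTRF detection of cAMP, converted to concentration via a standard curve and fitted (3-parameter logistic) for pEC50 and maximal response. Agonist stimulation used HEK293 cells stably transfected with human TGR5, incubated 30 min at 37° C in IBMX-containing buffer at 0.05 nM to 10 μM compound.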

Row | EC50 | Structure (SMILES)
1 | < 100 nM | CC(CCCCN(CCOCCO)C(=O)NC[C@H](O)[C@@H](O)[C@H](O)[C@H](O)CO)c1ccc(Cl)c(CNC2(c3cnccc3-c3ccccc3OC3CC3)CC2)c1 (stereo partly drawn) [Compound I-270, 1-(5-{4-chloro-3-[({1-[4-(2-cyclopropoxyphenyl)pyridin-3-yl]cyclopropyl}amino)methyl]phenyl}hexyl)-1-[2-(2-hydroxyethoxy)ethyl]-3-[(2S,3R,4R,5R)-2,3,4,5,6-pentahydroxyhexyl]urea]
2 | < 100 nM | Cc1ccc(C(C)CCCNC(=O)NC[C@H](O)[C@@H](O)[C@H](O)[C@H](O)CO)cc1CNC1(c2cnccc2-c2ccccc2OC2CC2)CC1 (stereo partly drawn) [Compound I-271, 1-(4-{3-[({l-[4-(2-cyclopropoxyphenyl)pyridin-3-yl]cyclopropyl}amino)methyl]-4-methylphenyl}pentyl)-3-[(2S,3R,4R,5R)-2,3,4,5,6-pentahydroxyhexyl]urea]
3 | < 100 nM | Cc1ccc(C(C)CCCCNC(=O)NC[C@H](O)[C@@H](O)[C@H](O)[C@H](O)CO)cc1CNC1(c2cnccc2-c2ccccc2OC2CC2)CC1 (stereo partly drawn) [Compound I-272, 1-(5-{3-[({1-[4-(2-cyclopropoxyphenyl)pyridin-3-yl]cyclopropyl}amino)methyl]-4-methylphenyl}hexyl)-3-[(2S,3R,4R,5R)-2,3,4,5,6-pentahydroxyhexyl]urea]
4 | < 100 nM | CC(CCCCNC(=O)NC[C@H](O)[C@@H](O)[C@H](O)[C@H](O)CO)c1ccc(Cl)c(COC2(c3cnccc3-c3ccccc3OC3CC3)CC2)c1 (stereo partly drawn) [Compound I-275, 1-{5-[4-chloro-3-({1-[4-(2-cyclopropoxyphenyl)pyridin-3-yl]cyclopropoxy}methyl)phenyl]hexyl}-3-[(2S,3R,4R,5R)-2,3,4,5,6-pentahydroxyhexyl]urea]
5 | < 100 nM | Cc1ccc(C(C)CCCCNC(=O)NC[C@H](O)[C@@H](O)[C@H](O)[C@H](O)CO)cc1COC1(c2cnccc2-c2ccccc2OC2CC2)CC1 (stereo partly drawn) [Compound I-276, 1-{5-[3-({1-[4-(2-cyclopropoxyphenyl)pyridin-3-yl]cyclopropoxy}methyl)-4-methylphenyl]hexyl}-3-[(2S,3R,4R,5R)-2,3,4,5,6-pentahydroxyhexyl]urea]
6 | 126 to 1000 nM | CC(CCCN(CCN1CCNC1=O)C(=O)[C@@H](O)[C@@H](O)[C@H](O)[C@@H](O)CO)c1ccc(Cl)c(CNC2(c3cnccc3-c3ccccc3OC3CC3)CC2)c1 (stereo partly drawn) [Compound I-277, (2S,3S,4R,5S)-N-(4-{4-chloro-3-[({1-[4-(2-cyclopropoxyphenyl)pyridin-3-yl]cyclopropyl}amino)methyl]phenyl}pentyl)-2,3,4,5,6-pentahydroxy-N-[2-(2-oxoimidazolidin-1-yl)ethyl]hexanamide]
7 | < 100 nM | CC(CCCNC(=O)[C@@H](O)[C@@H](O)[C@H](O)[C@@H](O)CO)c1ccc(Cl)c(CNC2(c3cnccc3-c3ccccc3OC3CC3)CC2)c1 (stereo partly drawn) [Compound I-278, (2S,3S,4R,5S)-N-(4-{4-chloro-3-[({1-[4-(2-cyclopropoxyphenyl)pyridin-3-yl]cyclopropyl}amino)methyl]phenyl}pentyl)-2,3,4,5,6-pentahydroxyhexanamide]
8 | < 100 nM | CC(CCCCNC(=O)[C@@H](O)[C@@H](O)[C@H](O)[C@@H](O)CO)c1ccc(Cl)c(CNC2(c3cnccc3-c3ccccc3OC3CC3)CC2)c1 (stereo partly drawn) [Compound I-279, (2S,3S,4R,5S)-N-(5-{4-chloro-3-[({1-[4-(2-cyclopropoxyphenyl)pyridin-3-yl]cyclopropyl}amino)methyl]phenyl}hexyl)-2,3,4,5,6-pentahydroxyhexanamide]
9 | < 100 nM | CC(CCCCCNC(=O)[C@@H](O)[C@@H](O)[C@H](O)[C@@H](O)CO)c1ccc(Cl)c(CNC2(c3cnccc3-c3ccccc3OC3CC3)CC2)c1 (stereo partly drawn) [Compound I-280, (2S,3S,4R,5S)-N-(6-{4-chloro-3-[({1-[4-(2-cyclopropoxyphenyl)pyridin-3-yl]cyclopropyl}amino)methyl]phenyl}heptyl)-2,3,4,5,6-pentahydroxyhexanamide]

Reference: patent US12084472B2 (Ardelyx, Inc., priority 2015, dated 2024)
